Measurements taken from patent publication US20240308998A1, “PYRROLOPYRIDONE DERIVATIVES USEFUL IN THE TREATMENT OF CANCER” (Tay Therapeutics Limited, priority 2021, published 2024).

Experiments:
BRD4 BD2 = molecular target: T1, BRD4 BD2 (Homo sapiens, UniProt O60885); test: NanoBRET bromodomain assay, BRD4 BD2; format: cell-based; conditions: for Fold selectivity BRD4 BD1/BD2: IC50 BD1/IC50 BD2; for IC50: NanoBRET, HEK293 cells transfected with NanoLuc-BRD4-BD2
T1 construct: HEK293 cells were transfected using NanoLuc-BRD4-BD1 or NanoLuc-BRD4-BD2 fusion vectors; host or cells: HEK293
Description: (§1) HEK293 cells were transfected using NanoLuc-BRD4-BD1 or NanoLuc-BRD4-BD2 fusion vectors and incubated at 37° C. in an atmosphere of 5% CO2 for 20-24 hours. The transfected cells were then dispensed into 96-well plates using 90 μl cell suspension per well containing 2×10^5 cells/ml in Opti-MEM and 1x final concentration of tracer. 90 μl per well of cell suspension without tracer was also dispensed into at least 3 wells as “No tracer control samples” for background correction. Serially diluted test compounds were prepared at 1000× concentration in DMSO and further diluted to 10× concentration in Opti-MEM. 10 μl per well of the serially diluted 10× test compound was added to the 96-well plates containing cells with 1x tracer. Plates were then incubated at 37° C.+5% C02 incubator for 2 hours. Immediately prior to BRET measurements, a 3x solution consisting of 1:166 dilution of Nano-Glo® Substrate plus a 1:500 dilution of Extracellular NanoLuc Inhibitor in Opti-MEM was prepared and 50 μl per well was added to the cells. Donor emission (450 nm) and acceptor emission (610 nm) were measured using PHERAstar (BMG LabTech). For data analysis, the raw BRET ratio was generated and converted to milliBRET units with background correction using the formula: [(Acceptorsample/Donorsample)−(Acceptorno tracer control/Donorno tracer control)]×1000. The mBU data was plotted as a function of compound concentration and IC50s for BRET assay were determined by nonlinear regression analysis of concentration response curves using the GraphPad Prism software.
Fold Selectivity Calculated (IC50 BD1/IC50 BD2).

BRD4 BD1 = molecular target: T2, BRD4 BD1 (Homo sapiens, UniProt O60885); test: NanoBRET bromodomain assay, BRD4 BD1; format: cell-based; conditions: HEK293 cells transfected with NanoLuc-BRD4-BD1
T2 construct: HEK293 cells were transfected using NanoLuc-BRD4-BD1 or NanoLuc-BRD4-BD2 fusion vectors; host or cells: HEK293
Description: as §1

[1] = Intrinsic clearance in rat liver microsomes; format: in vitro ADME; conditions: pH 7.4, NADPH, read-out: Rat Microsomal Stability T½
Description: A 50 mM stock solution (in DMSO) was prepared for the compound. From the stock solution, a working solution of 0.5 mM was prepared by diluting the compound in DMSO. This concentration of working solution was prepared considering a final concentration of 1 uM with 0.1% DMSO. The compound (1 uL of working solution) was spiked in PBS with pH 7.4 (22 uL) at a concentration of 1 uM. Subsequently, 110 uL of 10 mM NADPH was added (as a co-factor). The sample was incubated at 37° C. for 15 min. Following this, pre-warmed rat liver microsomes (27.5 uL; final protein conc. 0.5 mg/mL) were added. The samples were then incubated at 37° C. Aliquots of samples were withdrawn at 0, 5, 15, 30, 45 and 60 min. The reaction was stopped by using chilled acetonitrile containing internal standard. The samples were centrifuged and the supernatants analysed by LC-MS/MS. The percent compound remaining at each time point was calculated with respect to that of the 0 min sample. The data were then analysed to calculate half-life. Note that control samples were run without NADPH and blank samples were prepared using DMSO without the test Compound.

Row | Fold selectivity BRD4 BD1/BD2 (BRD4 BD2) | IC50 (BRD4 BD2) [µM] | IC50 (BRD4 BD1) [µM] | half-life at 1 uM [1] [h] | Compound
1 | xx (Fold >50 and ≤200) | 0.05 to 0.2 | > 1 | > 1 | Cc1cccc(C)c1Oc1cn(C)c(=O)cc1-c1cn(C)c(=O)c2[nH]c(-c3ccc(C(F)(F)F)cc3)cc12 [Example 28, 4-(5-(2,6-dimethylphenoxy)-1-methyl-2-oxo-1,2-dihydropyridin-4-yl)-6-methyl-2-(4-(trifluoromethyl)phenyl)-1,6-dihydro-7H-pyrrolo[2,3-c] pyridin-7-one]
2 | xxx (Fold >200) | ≤ 0.05 | > 1 | > 1 | Cc1cccc(C)c1Oc1cn(C)c(=O)cc1-c1cn(C)c(=O)c2[nH]c(-c3ccc(C(N)=O)cc3)cc12 [Example 29, 4-(4-(5-(2,6-dimethylphenoxy)-1-methyl-2-oxo-1,2-dihydropyridin-4-yl)-6-methyl-7-oxo-6,7-dihydro-1H-pyrrolo[2,3-c]pyridin-2-yl) benzamide]
3 | xx (Fold >50 and ≤200) | 0.05 to 0.2 | > 1 | > 1 | Cc1cccc(C)c1Oc1cn(C)c(=O)cc1-c1cn(C)c(=O)c2[nH]c(-c3cnn[nH]3)cc12 [Example 30, 4-(5-(2,6-dimethylphenoxy)-1-methyl-2-oxo-1,2-dihydropyridin-4-yl)-6-methyl-2-(1H-1,2,3-triazol-5-yl)-1,6-dihydro-7H-pyrrolo[2,3-c] pyridin-7-one]
4 | xx (Fold >50 and ≤200) | ≤ 0.05 | 0.05 to 0.5 | > 1 | Cc1ncc(-c2cc3c(-c4cc(=O)n(C)cc4Oc4c(C)cccc4C)cn(C)c(=O)c3[nH]2)s1 [Example 31, 4-(5-(2,6-dimethylphenoxy)-1-methyl-2-oxo-1,2-dihydropyridin-4-yl)-6-methyl-2-(2-methylthiazol-5-yl)-1,6-dihydro-7H-pyrrolo[2,3-c] pyridin-7-one]
5 | xx (Fold >50 and ≤200) | 0.05 to 0.2 | > 1 | > 1 | Cc1cccc(C)c1Oc1cn(C)c(=O)cc1-c1cn(C)c(=O)c2[nH]c(-c3ccn[nH]3)cc12 [Example 32, 4-(5-(2,6-dimethylphenoxy)-1-methyl-2-oxo-1,2-dihydropyridin-4-yl)-6-methyl-2-(1H-pyrazol-5-yl)-1,6-dihydro-7H-pyrrolo [2,3-c] pyridin-7-one]
6 | x (Fold >2 and ≤50) | > 1 | > 1 | > 1 | Cc1cccc(C)c1Oc1cn(C)c(=O)cc1-c1cn(C)c(=O)c2[nH]c(-c3cnnn3C)cc12 [Example 33, 4-(5-(2,6-dimethylphenoxy)-1-methyl-2-oxo-1,2-dihydropyridin-4-yl)-6-methyl-2-(1-methyl-1H-1,2,3-triazol-5-yl)-1,6-dihydro-7H-pyrrolo[2,3-c] pyridin-7-one]
7 | — (Fold ≥0 and ≤2) | > 1 | > 1 | > 1 | Cc1cccc(C)c1Oc1cn(C)c(=O)cc1-c1cn(C)c(=O)c2[nH]c(-c3ccc(C(=O)O)cc3)cc12 [Example 35, 4-(4-(5-(2,6-dimethylphenoxy)-1-methyl-2-oxo-1,2-dihydropyridin-4-yl)-6-methyl-7-oxo-6,7-dihydro-1H-pyrrolo[2,3-c]pyridin-2-yl) benzoic acid]
8 | xx (Fold >50 and ≤200) | ≤ 0.05 | > 1 | > 1 | Cc1cccc(C)c1Oc1cn(C)c(=O)cc1-c1cn(C)c(=O)c2[nH]c(-c3cnn(C)c3C)cc12 [Example 36, 2-(1,5-dimethyl-1H-pyrazol-4-yl)-4-(5-(2,6-dimethylphenoxy)-1-methyl-2-oxo-1,2-dihydropyridin-4-yl)-6-methyl-1,6-dihydro-7H-pyrrolo[2,3-c] pyridin-7-one]
